# Results as given in ChEMBL document CHEMBL4765321, “Discovery of new thieno[3,2-d]pyrimidine derivatives targeting EGFR NSCLCs by the conformation constrained strategy” (Eur J Med Chem, 2020).
# Active and inactive are the calls of the source. The rule behind the calls is not given here.
# Columns and labels:
# [1] = tested on: Epidermal growth factor receptor (Homo sapiens), P00533 [L858R,T790M]; test: Inhibition of N-terminal GST-fused human EGFR L858R/T790M double mutant cytoplasmic domain (669 to 1210 residues) expressed in baculovirus expression system using 5-FAM-EEPLYWSFPAKKK-CONH2 as substrate at 1 uM incubated for 20 mins by Mobility shift assay
# [2] = biological target: Epidermal growth factor receptor (Homo sapiens, UniProt P00533, L858R/T790M); test: Inhibition of N-terminal GST-fused human EGFR L858R/T790M double mutant cytoplasmic domain (669 to 1210 residues) expressed in baculovirus expression system using 5-FAM-EEPLYWSFPAKKK-CONH2 as substrate incubated for 20 mins by Mobility shift assay
# [3] = biological target: T1, Epidermal growth factor receptor (Homo sapiens, UniProt P00533); test: Inhibition of N-terminal GST-fused human wild type EGFR cytoplasmic domain (669 to 1210 residues) expressed in baculovirus expression system using 5-FAM-EEPLYWSFPAKKK-CONH2 as substrate incubated for 20 mins by Mobility shift assay
# Homo sapiens = species: Homo sapiens; test: Selectivity index, ratio of IC50 for N-terminal GST-fused human wild type EGFR cytoplasmic domain (669 to 1210 residues) expressed in baculovirus expression system to IC50 for N-terminal GST-fused human EGFR L858R/T790M double mutant cytoplasmic domain (669 to 1210 residues) expressed in baculovirus expression system
# NCI-H1975 [4] = test: cells; assay type: functional, cell-based; conditions: Homo sapiens, NCI-H1975, 72 h
# A549 [5] = test: Antiproliferative activity against human A549 cells harboring wild type EGFR assessed as reduction in cell viability measured after 72 hrs by MTT assay; assay type: cell-based; conditions: A549, 72 h
# PC-9 = test: Antiproliferative activity against human PC9 cells harboring EGFRdel19 mutant assessed as reduction in cell viability measured after 72 hrs by MTT assay; assay type: functional, cell-based; conditions: PC-9, 72 h
# L02 = test: Cytotoxicity against human L0-2 cells assessed as reduction in cell viability measured after 72 hrs by MTT assay; assay type: ADME, cell-based; conditions: L02, 72 h
# [6] = tested on: Epidermal growth factor receptor (Homo sapiens), P00533 [L858R,T790M]; test: Binding affinity to EGFR L858R/T790M double mutant in human H1975 cells assessed as increase in protein signal at 50 uM incubated for 4 hrs followed by heating from 40 to 64 degC for 5 mins by CETSA based western blot analysis; assay type: cell-based; conditions: NCI-H1975, time 245.0 min
# [7] = biological target: T1, Epidermal growth factor receptor; test: Binding affinity to wild type EGFR in human A549 cells assessed as increase in protein signal at 50 uM incubated for 4 hrs followed by heating from 40 to 64 degC for 5 mins by CETSA based western blot analysis; assay type: cell-based; conditions: a549, 4.083 h, time 245 min
# NCI-H1975 [8] = test: Inhibition of colony formation in human H1975 cells measured after 10 days by crystal violet staining based ELISA; assay type: functional, cell-based; conditions: dose 0.31-2.5 µM, time 10.0 day
# A549 [9] = test: Inhibition of colony formation in human A549 cells at 0.31 to 2.5 uM measured after 10 days by crystal violet staining based ELISA; assay type: cell-based; conditions: a549, 240 h, dose 0.31-2.5 µM, time 10 day
# NCI-H1975 [10] = test: Inhibition of cell migration in human H1975 cells at 0.5 to 5 uM incubated for 48 hrs by scratch wound healing assay; assay type: functional, cell-based; conditions: dose 0.5-5 µM
# A549 [11] = test: Inhibition of cell migration in human A549 cells at 5 uM incubated for 48 hrs by scratch wound healing assay; assay type: cell-based; conditions: a549, 48 h
# [12] = tested on: Epidermal growth factor receptor (Homo sapiens), P00533 [L858R,T790M]; test: Inhibition of EGF-induced phosphorylation of EGFR L858R/T790M double mutant in human H1975 cells at 1 uM incubated for 2 hrs followed by EGF stimulation for 10 mins by western blot analysis; assay type: cell-based; conditions: NCI-H1975, time 130.0 min
# [13] = tested on: Epidermal growth factor receptor (Homo sapiens), P00533 [L858R,T790M]; test: Inhibition of EGF-induced phosphorylation of EGFR L858R/T790M double mutant in human H1975 cells at 3 uM incubated for 2 hrs followed by EGF stimulation for 10 mins by western blot analysis; assay type: cell-based; conditions: NCI-H1975, time 130.0 min
# [14] = tested on: Epidermal growth factor receptor (Homo sapiens), P00533 [L858R,T790M]; test: Inhibition of EGF-induced phosphorylation of EGFR L858R/T790M double mutant in human H1975 cells at 10 uM incubated for 2 hrs followed by EGF stimulation for 10 mins by western blot analysis; assay type: cell-based; conditions: NCI-H1975, time 130.0 min
# [15] = biological target: T1, Epidermal growth factor receptor; test: Inhibition of EGFR phosphorylation in human A549 cells at 1 to 10 uM incubated for 2 hrs followed by EGF stimulation for 10 mins by western blot analysis; assay type: cell-based; conditions: a549, 2.167 h, dose 1-10 µM, time 130 min
# [16] = tested on: Epidermal growth factor receptor (Homo sapiens), P00533 [L858R,T790M]; test: Inhibition of EGFR L858R/T790M double mutant in human H1975 cells assessed as inhibition of EGF-induced ERK phosphorylation at 1 uM incubated for 2 hrs followed by EGF stimulation for 10 mins by western blot analysis; assay type: cell-based; conditions: NCI-H1975, time 130.0 min
# [17] = tested on: Epidermal growth factor receptor (Homo sapiens), P00533 [L858R,T790M]; test: Inhibition of EGFR L858R/T790M double mutant in human H1975 cells assessed as inhibition of EGF-induced ERK phosphorylation at 3 uM incubated for 2 hrs followed by EGF stimulation for 10 mins by western blot analysis; assay type: cell-based; conditions: NCI-H1975, time 130.0 min
# [18] = tested on: Epidermal growth factor receptor (Homo sapiens), P00533 [L858R,T790M]; test: Inhibition of EGFR L858R/T790M double mutant in human H1975 cells assessed as inhibition of EGF-induced ERK phosphorylation at 10 uM incubated for 2 hrs followed by EGF stimulation for 10 mins by western blot analysis; assay type: cell-based; conditions: NCI-H1975, time 130.0 min
# [19] = biological target: T1, Epidermal growth factor receptor; test: Inhibition of EGFR in human A549 cells assessed as inhibition of ERK phosphorylation at 1 to 10 uM incubated for 2 hrs followed by EGF stimulation for 10 mins by western blot analysis; assay type: cell-based; conditions: a549, 2.167 h, dose 1-10 µM, time 130 min
# [20] = tested on: Epidermal growth factor receptor (Homo sapiens), P00533 [L858R,T790M]; test: Inhibition of EGFR L858R/T790M double mutant in human H1975 cells assessed as inhibition of EGF-induced ERK phosphorylation incubated for 2 hrs followed by EGF stimulation for 10 mins by western blot analysis; assay type: cell-based; conditions: NCI-H1975, dose 1-10 µM, time 130.0 min
# [21] = tested on: Epidermal growth factor receptor (Homo sapiens), P00533 [L858R,T790M]; test: Inhibition of EGF-induced phosphorylation of EGFR L858R/T790M double mutant in human H1975 cells incubated for 2 hrs followed by EGF stimulation for 10 mins by western blot analysis; assay type: cell-based; conditions: NCI-H1975, dose 1-10 µM, time 130.0 min
structure (smiles),measurement,setting,value
CCN1CCN(c2ccc(Nc3nc(Oc4ccc5ccc(=O)[nH]c5c4)c4sccc4n3)c(OC)c2)CC1,inhibition,[1],75%
same,IC50,[2],0.33 µM
same,IC50,[3],> 10 µM
same,Ratio IC50,Homo sapiens,> 30
same,IC50,NCI-H1975 [4],10.1 µM
same,IC50,A549 [5],> 20 µM
same,IC50,PC-9,24.8 µM
same,IC50,L02,4.4 µM
CCN1CCN(Cc2ccc(Nc3nc(Oc4ccc5ccc(=O)[nH]c5c4)c4sccc4n3)cc2)CC1,inhibition,[1],81%
same,IC50,[2],0.24 µM
same,IC50,[3],> 10 µM
same,Ratio IC50,Homo sapiens,> 42
same,IC50,NCI-H1975 [4],10.1 µM
same,IC50,A549 [5],5.34 µM
same,IC50,PC-9,17.5 µM
same,IC50,L02,5.23 µM
O=c1ccc2ccc(Oc3nc(Nc4ccc(CN5CCOCC5)cc4)nc4ccsc34)cc2[nH]1,inhibition,[1],60%
same,IC50,[3],> 10 µM
CN1CCN(Cc2ccc(Nc3nc(Oc4ccc5ccc(=O)[nH]c5c4)c4sccc4n3)cc2)CC1,inhibition,[1],83%
same,IC50,[2],0.2 µM
same,IC50,[3],> 10 µM
same,Ratio IC50,Homo sapiens,> 50
same,IC50,NCI-H1975 [4],10.8 µM
same,IC50,A549 [5],8.08 µM
same,IC50,PC-9,19.3 µM
same,IC50,L02,7.99 µM
O=c1ccc2ccc(Oc3nc(Nc4ccc(N5CCC(N6CCCCC6)CC5)c(F)c4)nc4ccsc34)cc2[nH]1,inhibition,[1],87%
same,IC50,[2],0.11 µM
same,IC50,[3],12.4 µM
same,Ratio IC50,Homo sapiens,113
same,Activity,[6],Active
same,Activity,[7],Not Active
same,IC50,NCI-H1975 [4],10.9 µM
same,IC50,A549 [5],10.4 µM
same,IC50,PC-9,16.7 µM
same,IC50,L02,5.6 µM
O=c1ccc2ccc(Oc3nc(Nc4ccc(N5CCOCC5)cc4)nc4ccsc34)cc2[nH]1,inhibition,[1],56%
same,IC50,[3],> 10 µM
same,IC50,L02,12.5 µM
CCN1CCN(c2nc(Oc3ccc4ccc(=O)[nH]c4c3)c3sccc3n2)CC1,inhibition,[1],inactive
same,IC50,[2],> 1 µM
same,IC50,[3],> 10 µM
same,IC50,L02,> 20 µM
CN1CCN(c2ccc(Nc3nc(Oc4ccc5ccc(=O)[nH]c5c4)c4sccc4n3)cc2)CC1,inhibition,[1],82%
same,IC50,[2],0.25 µM
same,IC50,[3],> 10 µM
same,Ratio IC50,Homo sapiens,> 40
same,IC50,NCI-H1975 [4],4.15 µM
same,IC50,A549 [5],3.46 µM
same,IC50,PC-9,5.78 µM
same,IC50,L02,> 50 µM
O=c1ccc2ccc(Oc3nc(Nc4ccc(N5CCS(=O)(=O)CC5)cc4)nc4ccsc34)cc2[nH]1,inhibition,[1],64%
same,IC50,[3],> 10 µM
O=c1ccc2ccc(Oc3nc(Nc4ccc(N5CCOCC5)c(F)c4)nc4ccsc34)cc2[nH]1,inhibition,[1],39%
same,IC50,[2],> 1 µM
same,IC50,[3],> 10 µM
COc1cccc(Nc2nc(Oc3ccc4ccc(=O)[nH]c4c3)c3sccc3n2)c1,inhibition,[1],22%
same,IC50,[2],> 1 µM
same,IC50,[3],> 10 µM
O=c1ccc2ccc(Oc3nc(Nc4ccc(N5CCC(N6CCCCC6)CC5)cc4)nc4ccsc34)cc2[nH]1,inhibition,[1],83%
same,IC50,[3],> 10 µM
CN1CCN(c2nc(Oc3ccc4ccc(=O)[nH]c4c3)c3sccc3n2)CC1,inhibition,[1],inactive
same,IC50,[2],> 1 µM
CN(C)CCNc1ccc(Nc2nc(Oc3ccc4ccc(=O)[nH]c4c3)c3sccc3n2)cc1F,inhibition,[1],81%
same,IC50,[2],0.23 µM
same,IC50,[3],14 µM
same,Ratio IC50,Homo sapiens,61
same,inhibition,NCI-H1975 [8],Dose-dependent effect
same,Activity,A549 [9],Toxic
same,Activity,[6],Active
same,Activity,[7],Not Active
same,IC50,NCI-H1975 [4],10.8 µM
same,IC50,A549 [5],2.92 µM
same,IC50,PC-9,16 µM
same,IC50,L02,3.2 µM
same,inhibition,NCI-H1975 [10],Active
same,Activity,A549 [11],Non-Toxic
same,inhibition,[12],34%
same,inhibition,[13],43%
same,inhibition,[14],89%
same,inhibition (INH),[15],Not Active
same,inhibition,[16],5%
same,inhibition,[17],53%
same,inhibition,[18],66%
same,inhibition (INH),[19],Not Active
same,inhibition,[20],Dose-dependent effect
same,inhibition,[21],Dose-dependent effect
C#Cc1cccc(Nc2ncnc3cc(OCCOC)c(OCCOC)cc23)c1 [ERLOTINIB],IC50,NCI-H1975 [4],> 20 µM
same,IC50,PC-9,> 50 µM
same,IC50,L02,7.25 µM
O=c1ccc2ccc(Oc3nc(Nc4ccc(F)cc4)nc4ccsc34)cc2[nH]1,inhibition,[1],8%
same,IC50,[2],> 1 µM
same,IC50,[3],> 10 µM
CN1CCN(c2ccc(Nc3nc(Oc4ccc5ccc(=O)[nH]c5c4)c4sccc4n3)cc2F)CC1,inhibition,[1],82%
same,IC50,[3],> 10 µM
same,IC50,NCI-H1975 [4],14.5 µM
same,IC50,A549 [5],> 20 µM
same,IC50,PC-9,> 50 µM
same,IC50,L02,8.37 µM
CN1CCN(c2ccc(Nc3nc(Oc4ccc5ccc(=O)[nH]c5c4)c4sccc4n3)nc2)CC1,inhibition,[1],32%
same,IC50,[2],> 1 µM
same,IC50,[3],> 10 µM
same,IC50,A549 [5],> 20 µM
same,IC50,L02,> 20 µM
COc1cc(N2CCN(C)CC2)ccc1Nc1nc(Oc2ccc3ccc(=O)[nH]c3c2)c2sccc2n1,inhibition,[1],74%
same,IC50,[2],0.33 µM
same,IC50,[3],> 10 µM
same,Ratio IC50,Homo sapiens,> 30
same,IC50,NCI-H1975 [4],6.95 µM
same,IC50,A549 [5],> 20 µM
same,IC50,PC-9,22.1 µM
same,IC50,L02,6.76 µM
C=CC(=O)Nc1cccc(Oc2nc(Nc3ccc(N4CCN(C)CC4)cc3)nc3ccsc23)c1 [OLMUTINIB],IC50,NCI-H1975 [4],9.61 µM
same,IC50,PC-9,16.5 µM
same,IC50,L02,0.026 µM
